According to patent US8501734B2, “Medical intervention in haematological cancers” (Oncotyrol-Center for Personalized Cancer Medicine GmbH …, priority 2008, dated 2013):

Tests used:
[1] = system: OPM2 cells; assay: Annexin V/PI apoptosis assay (FACS), OPM2 cells; assay type: cell-based; parameters: apoptosis induction: unit not given here
[2] = system: OPM2 cells; assay: PARP cleavage assay (Western blot), OPM2 cells; assay type: cell-based; conditions: 40 μg/ml
Experimental: Cells were lysed in lysis-IP-Buffer supplemented with protease inhibitors and sodium orthovanadate. 10 μg of lysate were separated by SDS-PAGE (10% polyacrylamide) and transferred to methanol activated Hypond-P PVDF-membranes (Amersham, Freiburg, Germany) by semi-dry blotting. Membranes were blocked in a 3% bovine serum albumin solution or 5% non fat dry milk solution in phosphate buffered saline (PBS) with 0.1% Tween 20 (PBT). Primary antibodies were applied in blocking solution for 1 h at room temperature or over night at 4° C. Membranes were washed in PBT and incubated with corresponding secondary antibodies in 5% non fat dry milk in PBT for 1 h at room temperature. Cells were washed with PBT, incubated with ECL solution and exposed in a Fluorchem 5500 (Biozym, Oldendorf, Germany).
OPM2 cells were suspended in full medium and cultured in 24-well plates at a cell density of 500.000 cells/ml and well. Cells were left untreated (control) or treated over night with different concentrations of Imiquimod® (10, 20 or 40 μg/ml).
OPM2 cells were cultured in 24-well plates as described above. Imiquimod® (40 μg/ml) was added to cells (except controls) for different time periods (2, 4, 6 and 8 h) and the extent of PARP1 cleavage, IRAK1, IkB-α and IkB-β degradation were determined by Western blot. α-Tubulin was used as a loading control.

[3] = system: peripheral blood mononuclear cells (PBMCs); assay: Annexin V/PI apoptosis assay, PBMCs from healthy donors; assay type: cell-based, human; conditions: 40 μg/ml, 24 h
Experimental: PBMCs were prepared using separation via Ficoll density gradient centrifugation (Biochrom AG, Berlin, Germany) according to the protocol of the manufacturer.
(§1) After treatment adherent cells were trypsinized (as described before), and resuspended in corresponding full medium. Suspension cells or trypsinized adherent cells, supernatant and washing solution (1×PBS from washing before trypsinization) were pooled and then spun down (300 g for 3 min) washed in 2 ml and resuspended in 1000 of annexin V binding buffer and mixed with 2 μg/ml annexin V-Allophycocyanin (APC) (BD-Pharmingen, San Diego, Calif., USA) and 50 ng/ml of propidium iodide (PI; Sigma Aldrich). At least 10.000 cells were measured per sample using a Becton Dickinson FACSCalibur flow Cytometer (San Jose, Calif., USA). Percentage of Annexin V negative and PI negative cells were depicted in the figures. For the analysis of the pro-apoptotic activity of Imiquimod® in primary MM cells and non-malignant BMMCs, 5×10^5 cells BMMCs cells were treated with or without 40 μg/ml Imiquimod® for the indicated time periods. Cells were then harvested and washed twice with PBS. Detection of apoptotic cells was performed using the annexin V/PI assay according to manufacturers' instruction. Briefly, BMMCs were stained with a mixture of annexin V/FITC (Alexis Coorp., Laeufelfingen, Switzerland), propidium iodide (Sigma), anti-CD38-PE and anti-CD45-PC5 for 15 min at room temperature and immediately analyzed by flow cytometry. The percentages of viable cells (i.e. cells negative for annexin V/FITC and PI) within the MM (CD38^posCD45^low/absent) and non-MM fraction (CD38^neg/CD45^pos) were determined by flow cytometry.
(§2) Adherent cells were grown in 24-well plates to confluence and treated with 40 μg/ml Imiquimod® for 24 h. Cells were then trypsinized, suspended in full medium, stained for AnnexinV/PI and apoptosis was measured as described before. Suspension cells (250.000) were treated with 40 μg/ml Imiquimod® for 24 h, stained for Annexin/PI and apoptosis was measured as described above (Annexin V/Propidium Iodide apoptosis Assay).

[4] = system: non-tumor cells (CD38negCD45high); assay: Annexin V/PI apoptosis assay, non-tumor fraction of patient BMMCs; assay type: cell-based, human; conditions: CD45high non-tumor cells, 40 μg/ml, 8 h or 24 h
Experimental: For collection of primary multiple myeloma cells, bone marrow aspirates from iliac crests were collected during routine examinations after obtaining informed patient consent. Bone marrow mononuclear cells (BMMCs) were separated by density centrifugation. Fresh blood samples were diluted 1:1 with RPMI 1640 medium and layered over Biocoll separating solution (1.077 g/ml, Biochrom AG, Berlin; blood/RPMI1640/Biocoll; 1:1:1, v/v/v). Centrifugation was carried out for 20 min at 400 g. […] The percentage of multiple myeloma cells within the BMMCs was determined by flow cytometry. Briefly, 2×10^5 cells were stained for 15 min with fluorochrome-labelled antibodies to CD38 (phycoerythrin, PE) and CD45 (phycoerythrin-cyanin 5, PC5) (both from Beckman Coulter Inc., Fullerton, Calif., USA), washed with PBS and were immediately analyzed using the FC500 flow cytometer and the RXP1.0 software (Beckman Coulter). MM cells were detected by their high expression of CD38 and weak to absent expression of CD45.
After treatment adherent cells were trypsinized (as described before), and resuspended in corresponding full medium. […] At least 10.000 cells were measured per sample using a Becton Dickinson FACSCalibur flow Cytometer (San Jose, Calif., USA). […]

[5] = system: multiple myeloma cell lines; assay: Annexin V/PI apoptosis assay, multiple myeloma cell line panel; assay type: cell-based; conditions: 24 h
Experimental: as §1, §2

[6] = system: melanoma cells; conditions: 50 μg/ml, 24 h; cited from earlier work

CC(C)Cn1cnc2c(N)nc3ccccc3c21 [Imiquimod, 1-(2-methylpropyl)-1H-imidazo[4,5-c]quinolin-4-amine]
apoptosis induction ([1]; OPM2 cells, 24 h, Imi 20 μg/ml alone): +
apoptosis induction, single agent ([1]; OPM2 cells, 24 h, Imiquimod 20 μg/ml or Akt inhibitor alone): some apoptosis
apoptosis induction ([1]; OPM2 cells, 48 h, Imi 20 μg/ml alone): ++
apoptosis induction ([1]; multiple myeloma cells, 10 μg/ml, 24 h): apoptosis induction
apoptosis induction in AnnexinV/PI FACS analysis assay ([1]; multiple myeloma cells, 40 μg/ml): 70%
PARP cleavage ([2]; 2 hours after application): some PARP cleavage
apoptosis induction in PARP cleavage assay ([2]; 6 h to 8 h after application): 100%
PARP cleavage ([2]; after 6 hours): nearly complete PARP cleavage
onset of apoptosis induction ([2]; multiple myeloma cells): 2 h
sensitivity (apoptosis) ([3]; CD4+ and CD8+ cells from 12 healthy donors): nearly no sensitivity
sensitivity (apoptosis) ([3]; CD19+ cells from 12 healthy donors): only mildly affected
apoptosis induction [4]: induction of apoptosis
apoptosis induction, single agent ([5]; OPM2, LP-1, RPMI, U266, Imiquimod 20 μg/ml or Akti1/2 5 or 10 μM alone): some apoptosis
sensitivity (apoptosis) ([5]; OPM2, U266, LP1, NCI, 40 μg/ml): sensitive
apoptotic cells [6]: 15.8%
